Measured values from patent US9796700B2 (Celgene CAR LLC, priority 2013, dated 2017).

Target: Erk1 (Homo sapiens (Human), UniProt P27361)
Assay: Protein Mass Modification Assay (intact protein MALDI)
Format: binding
Procedure, shortened: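 Percent covalent modification comes from the intact-protein MALDI centroid mass shift, treated versus control, divided by compound MW. Before analysis, human Erk1 was exposed to compound at 10-fold excess over protein for 60 min at room temperature.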

Sequence of Erk1 (P27361 whole entry, looked up): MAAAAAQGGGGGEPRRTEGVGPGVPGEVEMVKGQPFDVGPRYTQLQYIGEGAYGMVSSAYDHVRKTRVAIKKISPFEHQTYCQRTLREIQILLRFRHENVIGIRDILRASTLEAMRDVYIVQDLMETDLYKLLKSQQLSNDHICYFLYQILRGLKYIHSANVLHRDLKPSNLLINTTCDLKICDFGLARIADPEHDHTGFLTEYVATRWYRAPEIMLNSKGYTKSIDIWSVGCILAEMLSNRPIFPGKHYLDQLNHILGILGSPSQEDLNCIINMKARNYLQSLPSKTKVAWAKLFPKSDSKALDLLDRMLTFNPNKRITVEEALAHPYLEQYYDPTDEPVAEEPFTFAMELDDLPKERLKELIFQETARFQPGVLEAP

Row | Structure (SMILES) | ERK1 Mass Mod (%)
1 | C=CC(=O)Nc1ccccc1Nc1nc(Nc2cc(C(=O)NCCO)c(F)cc2C)ncc1Cl [Compound I-232, 5-((4-((2-acrylamidophenyl)amino)-5-chloropyrimidin-2-yl)amino)-2-fluoro-N-(2-hydroxyethyl)-4-methylbenzamide] | E (provided a mass modification of ≧70%)
2 | C=CC(=O)Nc1cc(C)ccc1Nc1nc(Nc2cc(C(=O)NC)c(F)cc2C)ncc1Cl [Compound I-233, 5-((4-((2-acrylamido-4-methylphenyl)amino)-5-chloropyrimidin-2-yl)amino)-2-fluoro-N,4-dimethylbenzamide] | E (provided a mass modification of ≧70%)
3 | C=CC(=O)Nc1cc(C)ccc1Nc1nc(Nc2cc(C(=O)NCCO)c(F)cc2C)ncc1Cl [Compound I-234, 5-((4-((2-acrylamido-4-methylphenyl)amino)-5-chloropyrimidin-2-yl)amino)-2-fluoro-N-(2-hydroxyethyl)-4-methylbenzamide] | F (provided a mass modification of 31-69%)
4 | C=CC(=O)Nc1cc(C)ccc1Nc1nc(Nc2ccnc(OC)c2)ncc1Cl [Compound I-235, N-(2-((5-chloro-2-((2-methoxypyridin-4-yl)amino)pyrimidin-4-yl)amino)-5-methylphenyl)acrylamide] | E (provided a mass modification of ≧70%)
5 | C=CC(=O)Nc1cc(C)ccc1Nc1nc(Nc2ccncc2C)ncc1Cl [Compound I-236, N-(2-((5-chloro-2-((3-methylpyridin-4-yl)amino)pyrimidin-4-yl)amino)-5-methylphenyl)acrylamide] | E (provided a mass modification of ≧70%)
6 | C=CC(=O)Nc1cc(C)ccc1Nc1nc(Nc2cc(C(N)=O)ccn2)ncc1Cl [Compound I-238, 2-((4-((2-acrylamido-4-methylphenyl)amino)-5-chloropyrimidin-2-yl)amino)isonicotinamide] | E (provided a mass modification of ≧70%)
7 | C=CC(=O)Nc1cc(C)ccc1Nc1nc(Nc2cc(C(C)=O)ccc2C)ncc1Cl [Compound I-239, N-(2-((2-((5-acetyl-2-methylphenyl)amino)-5-chloropyrimidin-4-yl)amino)-5-methylphenyl)acrylamide] | E (key: E: provided a mass modification of ≧70%; F: provided a mass modification of 31-69%; G: proived a mass modification ≦30%)
8 | C=CC(=O)Nc1cc(OC)ccc1Nc1nc(Nc2cc(Cl)nc(OC)c2)ncc1Cl [Compound I-245, N-(2-((5-chloro-2-((2-chloro-6-methoxypyridin-4-yl)amino)pyrimidin-4-yl)amino)-5-methoxyphenyl)acrylamide] | F (provided a mass modification of 31-69%)
9 | C=CC(=O)Nc1ccccc1Nc1nc(Nc2cc(Cl)nc(OC)c2)ncc1Cl [Compound I-246, N-(2-((5-chloro-2-((2-chloro-6-methoxypyridin-4-yl)amino)pyrimidin-4-yl)amino)phenyl)acrylamide] | E (provided a mass modification of ≧70%)
10 | C=CC(=O)Nc1ccccc1Nc1nc(Nc2ccc(N3CCOCC3)cc2OC)ncc1C(N)=O [Compound I-249, 4-((2-acrylamidophenyl)amino)-2-((2-methoxy-4-morpholinophenyl)amino)pyrimidine-5-carboxamide] | F (provided a mass modification of 31-69%)
11 | C=CC(=O)Nc1ccccc1Nc1nc(Nc2ccc(N3CCOCC3)cc2OC)ncc1C(=O)NC [Compound I-250, 4-(2-acrylamidophenylamino)-2-(2-methoxy-4-morpholinophenylamino)-N-methylpyrimidine-5-carboxamide] | G (proived a mass modification ≦30%)
12 | C=CC(=O)Nc1ccccc1Nc1nc(Nc2ccc(N3CCOCC3)cc2OC)ncc1C(=O)NCC [Compound I-251, 4-((2-acrylamidophenyl)amino)-N-ethyl-2-((2-methoxy-4-morpholinophenyl)amino)pyrimidine-5-carboxamide] | G (proived a mass modification ≦30%)
13 | C=CC(=O)Nc1ccccc1Nc1nc(Nc2ccc3c(c2OC)CCCC(=O)N3CCN2CCOCC2)ncc1C(N)=O [Compound I-252, 4-((2-acrylamidophenyl)amino)-2-((6-methoxy-1-(2-morpholinoethyl)-2-oxo-2,3,4,5-tetrahydro-1H-benzo[b]azepin-7-yl)amino)pyrimidine-5-carboxamide] | F (provided a mass modification of 31-69%)
14 | C=CC(=O)Nc1ccccc1Nc1nc(Nc2ccc3c(c2OC)CCCC(=O)N3CCCN2CCOCC2)ncc1C(N)=O [Compound I-253, 4-((2-acrylamidophenyl)amino)-2-((6-methoxy-1-(3-morpholinopropyl)-2-oxo-2,3,4,5-tetrahydro-1H-benzo[b]azepin-7-yl)amino)pyrimidine-5-carboxamide] | F (provided a mass modification of 31-69%)
15 | C=CC(=O)Nc1ccccc1Nc1nc(Nc2ccc(OCCCN3CCOCC3)cc2OC)ncc1C(N)=O [Compound I-254, 4-((2-acrylamidophenyl)amino)-2-((2-methoxy-4-(3-morpholinopropoxy)phenyl)amino)pyrimidine-5-carboxamide] | E (provided a mass modification of ≧70%)
16 | C=CC(=O)Nc1ccccc1Oc1nc(Nc2ccc(N3CCC[C@@H]3CO)cc2OC)ncc1C(N)=O [Compound I-263, (R)-4-(2-acrylamidophenoxy)-2-((4-(2-(hydroxymethyl)pyrrolidin-1-yl)-2-methoxyphenyl)amino)pyrimidine-5-carboxamide] | E (provided a mass modification of ≧70%)
17 | C=CC(=O)Nc1ccccc1Oc1nc(Nc2ccc(N3CCC[C@@H]3C(N)=O)cc2OC)ncc1C(N)=O [Compound I-266, (R)-4-(2-acrylamidophenoxy)-2-((4-(2-carbamoylpyrrolidin-1-yl)-2-methoxyphenyl)amino)pyrimidine-5-carboxamide] | E (provided a mass modification of ≧70%)
18 | C=CC(=O)Nc1ccccc1Oc1nc(NC(C)(C)C)ncc1C(N)=O [Compound I-267, 4-(2-acrylamidophenoxy)-2-(tert-butylamino)pyrimidine-5-carboxamide] | E (provided a mass modification of ≧70%)
19 | C=CC(=O)Nc1ccccc1Nc1nc(Nc2ccc(N3CCOCC3)cc2OC)ncc1C(C)=O [Compound I-273, N-(2-(5-acetyl-2-(2-methoxy-4-morpholinophenylamino)pyrimidin-4-ylamino)phenyl) acrylamide] | G (proived a mass modification ≦30%)
20 | C=CC(=O)Nc1ccccc1Nc1nc(Nc2ccc(N3CCOCC3)cc2OC)ncc1/C(C)=N/OC [Compound I-274, (E)-N-(2-((2-((2-methoxy-4-morpholinophenyl)amino)-5-(1-(methoxyimino)ethyl)pyrimidin-4-yl)amino)phenyl)acrylamide] | G (proived a mass modification ≦30%)
21 | C=CC(=O)Nc1ccccc1Nc1nc(Nc2ccc(N3CCOCC3)cc2OC)ncc1/C(C)=N/O [Compound I-275, (E)-N-(2-((5-(1-(hydroxyimino)ethyl)-2-((2-methoxy-4-morpholinophenyl)amino)pyrimidin-4-yl)amino)phenyl)acrylamide] | G (proived a mass modification ≦30%)
22 | C=CC(=O)Nc1ccccc1Nc1nc(Nc2cc(OC)nc(N3CCCCC3)c2)ncc1C(F)(F)F [Compound I-282, N-(2-((2-((2-Methoxy-6-(piperidin-1-yl)pyridin-4-yl)amino)-5-(trifluoromethyl)pyrimidin-4-yl)amino)phenyl)acrylamide] | E (provided a mass modification of ≧70%)
